Results as given in patent US10322105B2, “Pharmaceutical composition containing Ginkgolide B and ADP receptor antagonist, preparation method thereof and use thereof” (CHENGDU BAIYU PHARMACEUTICAL CO., LTD, priority 2014, dated 2019).
Counter-ions that a name gives are not always drawn. Like-named read-outs stand apart in the source and are kept apart here.

Key:
[1] = cited from earlier work
[2] = tested on: platelet aggregation induced by PAF; assay: Platelet aggregation rate induced by PAF in platelet-rich plasma of rabbits after 7 days of administration; assay type: in vivo, Japanese large-ear white rabbits; settings: 5.0 mg/kg once daily for 7 days; for Platelet aggregation rate 1 min / Platelet aggregation rate 5 min / Maximum platelet aggregation rate (MAX): PRP, x ± s, n = 8; for Platelet aggregation rate 1 min: 1 min after addition of 10 μL PAF; for Platelet aggregation rate 5 min: 5 min after addition of 10 μL PAF; for Maximum platelet aggregation rate (MAX): after addition of PAF; for inhibition at 5 mg/kg: Oryctolagus cuniculus, Platelet, 168 h
Description: (§1) All groups were administered with a clinically used route and dosage for 7 days continuously.
After 7 days of administration, 10.5 ml of blood was taken from the heart of each animal, wherein 1.5 ml of […] was used for taking serum and the rest 9 ml of […] was subjected to 3.8% sodium citrate at 1:9 for anticoagulation, centrifuging for 10 minutes at 800 r/min, and taking the supernatant to obtain platelet-rich plasma (PRP), wherein 100 μl of the PRP was taken for electron microscope examination, and the rest of the PRP was used for detecting of the platelet aggregation rate; the remaining portion was centrifuged for 15 min at a speed of 3000 r/min, and platelet-depleted plasma (PPP) was obtained. PPP was used to adjust the number of platelet in PRP, to be at 360×10^9/L. The platelet aggregation rate was recorded at 1 min, 5 min of addition of 10 μL of PAF inducer and the maximum platelet aggregation rate was recorded after the addition of PAR

platelets = assay: Scanning electron microscopy study of platelet morphology after addition of PAF; assay type: in vivo, Japanese large-ear white rabbits; settings: rabbits, 5.0 mg/kg once daily for 7 days; PRP after addition of PAF, 100 platelets observed
Description: as §1
The 100 μL of PRP was placed in a silicification EP tube, and 1 μL of PAF was added to induce aggregation of platelets for 15 minutes, the PRP was then placed on a copper mesh sample support laid with a Formar membrane, incubating at 37° C. for 10 min, washing with ultrapure water, fixing with 3% glutaraldehyde for 5 minutes, rewashing with ultrapure water. After the sample on the copper mesh was naturally dried, a layer of 20 nm gold film was plated on the surface of the sample, and the cell morphology was studied with an electron microscope S-3000N. 100 of platelets were observed and calculated the ratio of each type of platelet. The types of platelet under the electron microscope includes: (1) Circle type appears circular or oval, with small size, compact center, large core and low and narrow transparent periphery zone. (2) Tree like type has a single or a plurality of elongated or sheet-shaped sometimes branched foot protrudes from the dense center. (3) Flat type has a dense core in the center and a wide transparent peripheral zone which has a smooth periphery or small bulges. (4) Aggregated-type is usually composed of several to dozens of platelets, with different sizes of the aggregates, wherein the platelets are mutually connected, some of the platelets are integrally fused into a whole, and the foot processes of the peripheral part are prominent.

[3] = in vivo; cited from earlier work
[4] = PLATO study, cited from earlier work
[5] = PAF-induced, relative to Saline group

| SMILES | Severe bleeding rate ([1]; Clopidogrel-treated patients) [%] | Common side effects: abdominal pain ([1]; clinical trial (CAPRIE)) [%] | Common side effects: diarrhea ([1]; clinical trial (CAPRIE)) [%] | Common side effects: digestive tract hemorrhage ([1]; clinical trial (CAPRIE)) [%] | Common side effects: dyspepsia ([1]; clinical trial (CAPRIE)) [%] | Common side effects: intracranial hemorrhage ([1]; clinical trial (CAPRIE)) [%] | Common side effects: rash ([1]; clinical trial (CAPRIE)) [%] | Common side effects: serious granulocyte reduction ([1]; clinical trial (CAPRIE)) [%] | Platelet aggregation rate 1 min [2] | Platelet aggregation rate 5 min [2] | Maximum platelet aggregation rate (MAX) [2] | inhibition at 5 mg/kg [2, 5] [%] | Types of morphology: Circle (platelets) [%] | Types of morphology: Flat (platelets) [%] | Types of morphology: Tree like (platelets) [%] | Platelet aggregation inhibition rate [2, 5] [%] | Occurrence rate of common side effects (digestive tract symptoms and rash) [3] | Occurrence rate of interventricular interval ([4]; acute stage) [%] | Occurrence rate of interventricular interval ([4]; after one month) [%] |
| --- | --- | --- | --- | --- | --- | --- | --- | --- | --- | --- | --- | --- | --- | --- | --- | --- | --- | --- | --- |
| COC(=O)[C@H](c1ccccc1Cl)N1CCc2sccc2C1 [Clopidogrel, (S)-alpha-(2-chlorphenyl)-6,7-dihydrothieno [3,2-c]pyridine-5-(4H)acetate hydrogen sulfate] | 1.4 | 6 | 5 | 2 | 5 | 0.4 | 4 | 0.04 | 35.27 ± 6.08 | 53.73 ± 8.46 | 60.96 ± 9.50 | 13.2 | 7.7 ± 7.8 | 30.7 ± 13.6 | 24.6 ± 8.8 |  |  |  |  |
| CC1C(=O)OC2C(O)C34C5CC(C(C)(C)C)C36C(OC(=O)C6O)OC4(C(=O)O5)C12O (centres unmarked) [Ginkgolide B] |  |  |  |  |  |  |  |  | 21.36 ± 4.15 | 33.54 ± 5.48 |  |  | 31.6 ± 6.4 | 46.1 ± 8.3 | 15.8 ± 6.8 | 44.66 |  |  |  |
| CC(=O)Oc1cc2c(s1)CCN(C(C(=O)C1CC1)c1ccccc1F)C2 (centres unmarked) [Prasugrel] |  |  |  |  |  |  |  |  | 37.14 ± 8.59 | 55.56 ± 7.53 | 63.12 ± 5.47 | 10.1 | 9.9 ± 7.6 | 25.4 ± 8.7 | 19.6 ± 6.8 |  |  |  |  |
| Clc1ccccc1CN1CCc2sccc2C1 [Ticlopidine] |  |  |  |  |  |  |  |  |  |  |  |  |  |  |  |  | about 10% |  |  |
| CCCSc1nc(N[C@@H]2C[C@H]2c2ccc(F)c(F)c2)c2nnn([C@@H]3C[C@H](OCCO)[C@@H](O)[C@H]3O)c2n1 [Ticagrelor, (1S,2S,3R,5S)-3-[7-[(1R,2S)-2-(3,4-Difluorophenyl)cycloprolamino]-5-(propylsulfanyl)-3H-[1,2,3]triazolo [4,5-d]pyrimidin-3-yl]-5-(2-hydroxyethoxy) cyclopenane-1,2-diol] |  |  |  |  |  |  |  |  | 34.21 ± 5.75 | 60.50 ± 9.24 | 67.74 ± 9.36 | 3.53 | 6.2 ± 7.5 | 33.6 ± 10.7 | 21.4 ± 9.4 |  |  | 60 | 2.2 |
